{"source": "patent US20100305658A1", "about": "(priority 2004, published 2010)", "key": {"[1]": {"system": "striatal dopamine efflux (dopamine oxidation current)", "experiment": "STN stimulation-evoked striatal dopamine efflux, constant potential amperometry, effects of selective reuptake inhibitors", "assay_type": "in vivo, rat", "details": "post-drug, 20 mg/kg systemic injection, STN stimulation 15 pulses, 50 Hz, 300 μA"}, "[2]": {"system": "glutamate release in ferret thalamic slices (A1 lamina of the LGN)", "experiment": "HFS-induced glutamate release in thalamic slices measured with a glutamate sensor", "assay_type": "cell-based"}, "GABAA receptors": {"system": "GABAA receptors", "experiment": "Extracellular recording of spontaneous spindle waves in LGN slice with GABAA receptors blocked", "assay_type": "cell-based", "details": "20 μM in bath; ferret LGN slice; n=5 slices", "experimental": "For the preparation of slices, 3-4 month old male or female ferrets (muftela putoriouf furo; Marshall Farms; North Rose, New York) were deeply anesthetized with sodium pentobarbital (30-40 mg/kg) and killed by decapitation. The forebrain was rapidly removed, and the hemispheres were separated with a midline incision. Four hundred micron thick slices were cut using a vibratome (Ted Pella, Inc.) in the sagittal plane. During preparation of slices, the tissue was placed in a solution (5° C.) in which NaCl was replaced with sucrose while maintaining an osmolarity of 307 mOsm to increase tissue viability. […]\nIntracellular recording electrodes were formed on a Sutter Instruments P-2000 laser micropipette puller from medium-walled glass (WPI, 1B100F). […] The data was analyzed using Chart (eDaq) on a Pentium style computer and figures were drawn using Core1DRAW (Corel).\nTo test the functional effects of HFS-mediated glutamate release, simultaneous intracellular and extracellular recordings were made in the ferret lateral geniculate nucleus (LGN) in vitro slice preparation, which generates spontaneous spindle waves (FIG. 14; n=21). Spindle activity was recorded from a population of neurons (extracellular electrode), and the electrophysiological activity associated with the spindle activity was recorded from single neurons within that population. […]"}}, "data": [{"molecule": "CN1Cc2c(N)cccc2C(c2ccccc2)C1", "note": "(stereo not shown) [nomifensine]", "values": [{"measurement": "recovery of dopamine efflux to prestimulation baseline levels (total duration)", "setting": "[1]", "value": "2035 ± 132", "unit": "ms"}, {"measurement": "STN electrical stimulation-evoked dopamine oxidation current (amplitude)", "setting": "[1]; anaesthetized rat striatum", "value": "765±38", "unit": "pA"}]}, {"molecule": "NC1=N[C@H](O)[C@H]2[C@H]3O[C@]4(O)O[C@@H]([C@@H](O)[C@@]2(N1)[C@@H]4O)[C@]3(O)CO", "note": "[tetrodotoxin]", "values": [{"measurement": "block of glutamate release induced by HFS", "setting": "[2]", "value": "failed to block"}]}, {"molecule": "picrotoxin", "values": [{"measurement": "effect on spontaneous spindle waves", "setting": "GABAA receptors", "value": "transformed into events that resemble absence-seizure-like activity"}]}]}
